Data: the supplement of paper PMC10307832

Columns and labels:
Experiment in all cases: relative viability (nuclei count vs DMSO), 5 days (fraction); higher = more cells survive
KN-93 + Navitoclax = compound: CN(C/C=C/C1=CC=C(C=C1)Cl)CC2=CC=CC=C2N(CCO)S(=O)(=O)C3=CC=C(C=C3)OC [KN-93] + CC1(C)CCC(c2ccc(Cl)cc2)=C(CN2CCN(c3ccc(C(=O)NS(=O)(=O)c4ccc(N[C@H](CCN5CCOCC5)CSc5ccccc5)c(S(=O)(=O)C(F)(F)F)c4)cc3)CC2)C1 [Navitoclax] (partner 0.5 µM)
How it was run: (§1)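 Each reported value is a median over duplicate plates. It expresses relative viability: treated-well nuclei count divided by vehicle-well nuclei count. Lung cancer cell lines in 1536-well plates were dosed by pin tool a day after seeding, alone with one drug or with a fixed anchor-drug dose plus five library-drug doses (not always all listed) in √10 steps, and nuclei were counted after 5 days.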

KN-93 + Foretinib = compound: CN(C/C=C/C1=CC=C(C=C1)Cl)CC2=CC=CC=C2N(CCO)S(=O)(=O)C3=CC=C(C=C3)OC [KN-93] + COc1cc2c(Oc3ccc(NC(=O)C4(C(=O)Nc5ccc(F)cc5)CC4)cc3F)ccnc2cc1OCCCN1CCOCC1 [Foretinib] (partner 0.25 µM)
How it was run: as §1

KN-93 + Decitabine = compound: CN(C/C=C/C1=CC=C(C=C1)Cl)CC2=CC=CC=C2N(CCO)S(=O)(=O)C3=CC=C(C=C3)OC [KN-93] + Nc1ncn([C@H]2C[C@H](O)[C@@H](CO)O2)c(=O)n1 [Decitabine] (partner 2 µM)
How it was run: as §1

KN-93 + Dasatinib = compound: CN(C/C=C/C1=CC=C(C=C1)Cl)CC2=CC=CC=C2N(CCO)S(=O)(=O)C3=CC=C(C=C3)OC [KN-93] + Cc1nc(Nc2ncc(C(=O)Nc3c(C)cccc3Cl)s2)cc(N2CCN(CCO)CC2)n1 [Dasatinib] (partner 0.075 µM)
How it was run: as §1

KN-93 + Tozasertib = compound: CN(C/C=C/C1=CC=C(C=C1)Cl)CC2=CC=CC=C2N(CCO)S(=O)(=O)C3=CC=C(C=C3)OC [KN-93] + Cc1cc(Nc2cc(N3CCN(C)CC3)nc(Sc3ccc(NC(=O)C4CC4)cc3)n2)n[nH]1 [Tozasertib] (partner 0.1 µM)
How it was run: as §1

Cell Line | relative viability (KN-93 + Navitoclax; first compound 0.08 µM) | relative viability (KN-93 + Navitoclax; first compound 0.253 µM) | relative viability (KN-93 + Navitoclax; first compound 2.53 µM) | relative viability (KN-93 + Navitoclax; first compound 8 µM) | relative viability (KN-93 + Foretinib; first compound 0.08 µM) | relative viability (KN-93 + Foretinib; first compound 0.253 µM) | relative viability (KN-93 + Foretinib; first compound 2.53 µM) | relative viability (KN-93 + Foretinib; first compound 8 µM) | relative viability (KN-93 + Decitabine; first compound 0.08 µM) | relative viability (KN-93 + Decitabine; first compound 0.253 µM) | relative viability (KN-93 + Decitabine; first compound 2.53 µM) | relative viability (KN-93 + Decitabine; first compound 8 µM) | relative viability (KN-93 + Dasatinib; first compound 0.08 µM) | relative viability (KN-93 + Dasatinib; first compound 0.253 µM) | relative viability (KN-93 + Dasatinib; first compound 2.53 µM) | relative viability (KN-93 + Dasatinib; first compound 8 µM) | relative viability (KN-93 + Tozasertib; first compound 0.08 µM) | relative viability (KN-93 + Tozasertib; first compound 0.253 µM) | relative viability (KN-93 + Tozasertib; first compound 2.53 µM) | relative viability (KN-93 + Tozasertib; first compound 8 µM)
HCC-78 | 0.699 | 0.833 | 0.778 | 0.375 | 0.564 | 0.475 | 0.579 | 0.525 | 0.724 | 0.676 | 0.709 | 0.747 | 0.336 | 0.459 | 0.373 | 0.344 | 0.392 | 0.369 | 0.369 | 0.382
HCC-366 | – | 1.35 | 1.1 | 0.907 | 0.909 | 1.02 | 0.796 | 0.379 | 0.333 | 0.333 | 0.307 | 0.299 | 0.513 | 0.562 | 0.737 | 0.223 | 0.0849 | 0.0834 | 0.111 | 0.0411
HCC-827 | 1.04 | 0.986 | 0.98 | 0.872 | 1.05 | 1.09 | 0.931 | 0.577 | 0.356 | 0.335 | 0.332 | 0.304 | 0.279 | 0.302 | 0.233 | 0.275 | 0.445 | 0.492 | 0.404 | 0.337
HOP-62 | 1.01 | 0.897 | 1.38 | 0.904 | 1.2 | 1.22 | 1.26 | 0.958 | 0.225 | 0.27 | 0.241 | 0.239 | 0.52 | 0.669 | 0.675 | 0.501 | 0.395 | 0.44 | 0.401 | 0.273
IA-LM | 0.975 | 0.826 | 1.23 | 0.439 | – | 1.36 | 1.3 | 0.926 | – | – | – | – | – | – | – | – | – | – | – | –
LC-2-ad | 0.425 | 0.414 | 0.364 | 0.129 | 0.992 | 1.01 | 0.915 | 0.699 | 0.775 | 0.772 | 0.911 | 0.702 | 0.74 | 0.571 | 0.523 | 0.329 | 0.444 | 0.393 | 0.483 | 0.389
LCLC-97TM1 | 0.287 | – | 0.527 | 0.238 | 0.955 | 0.978 | 0.895 | 0.74 | 0.288 | 0.208 | 0.279 | 0.211 | 0.753 | 0.955 | 0.814 | 0.63 | 0.254 | 0.229 | 0.226 | 0.194
LCLC-103H | – | – | – | – | 0.901 | 1.01 | 0.799 | 0.536 | 0.657 | 0.69 | 0.673 | 0.518 | 0.438 | 0.464 | 0.438 | 0.26 | 0.427 | 0.501 | 0.434 | 0.376
LK-2 | 0.743 | 0.677 | 1.12 | 0.567 | 1.16 | 1.58 | 1.48 | 1.15 | 0.276 | 0.293 | 0.315 | 0.278 | 0.248 | 0.315 | 0.288 | 0.417 | 0.212 | 0.191 | 0.163 | 0.158
LOU-NH91 | 0.621 | 0.63 | 0.709 | 0.545 | 0.963 | 0.886 | 1.01 | 0.885 | 0.833 | 0.769 | 0.795 | 0.786 | 0.504 | 0.532 | 0.604 | 0.458 | 0.618 | 0.663 | 0.586 | 0.477
NCI-H358 | – | – | – | – | 0.519 | 0.733 | 0.64 | 0.335 | 0.212 | 0.207 | 0.198 | 0.184 | 0.182 | 0.168 | 0.15 | 0.148 | 0.1 | 0.105 | 0.089 | 0.103
NCI-H522 | – | – | – | – | – | – | – | – | 0.699 | 0.625 | 0.7 | 0.707 | 0.825 | 0.949 | 0.846 | 0.695 | 0.551 | 0.536 | 0.566 | 0.511
NCI-H650 | – | – | – | – | 1.11 | 0.972 | 0.968 | 0.705 | 0.325 | 0.272 | 0.302 | 0.311 | 0.465 | 0.526 | 0.417 | 0.355 | 0.738 | 0.762 | 0.694 | 0.523
NCI-H661 | – | – | – | – | 0.942 | 1.13 | 0.976 | 0.481 | 0.539 | 0.527 | 0.543 | 0.378 | 1.01 | 0.808 | 0.69 | 0.413 | 0.365 | 0.355 | 0.342 | 0.36
NCI-H1703 | 0.936 | 1.11 | 1.04 | 0.179 | 0.351 | 0.364 | 0.352 | 0.238 | – | – | – | – | – | – | – | – | – | – | – | –
NCI-H1792 | – | 0.705 | 0.75 | 0.492 | – | – | – | – | 0.278 | 0.489 | 0.602 | 0.535 | 0.651 | 0.681 | 0.973 | 0.633 | – | – | – | –
NCI-H2228 | 1.31 | 0.788 | 0.914 | 0.674 | 0.872 | 0.891 | 0.862 | 0.506 | – | – | – | – | 0.597 | 0.541 | 0.631 | 0.326 | 0.274 | 0.166 | 0.243 | 0.154
NCI-H2342 | – | – | – | – | 0.918 | 0.962 | 1.06 | 0.902 | 0.675 | 0.685 | 0.757 | 0.77 | 0.277 | 0.327 | 0.354 | 0.277 | 0.471 | 0.492 | 0.556 | 0.421
SW 900 | – | – | – | – | 0.851 | 0.942 | 1.02 | 0.762 | 0.443 | 0.427 | 0.452 | 0.517 | 0.609 | 0.568 | 0.65 | 0.48 | 0.529 | 0.544 | 0.598 | 0.368
